Read-outs that look alike come from different tables or passages of the source.
Assays:
AChE = molecular target: T1, AChE (Electrophorus electricus, UniProt O42275); test: biochemical
T1 construct: The enzymes AChE and BuChE were obtained from electric eel and equine serum, respectively; from tissue; host or cells: electric eel
Experimental: (§1) The in vitro cholinesterase assay of the synthesized curcumin analogs were carried out according to the Ellman’s method with slight modification. The enzymes AChE and BuChE were obtained from electric eel and equine serum, respectively. […] The final concentrations of AChE 0.03 U/mL and 0.01 U/mL of BuChE were achieved. […] The experiment was started by adding 5 µL enzyme solutions to cuvette, then 205 µL test sample and 5 µL DTNB reagents were added. Substrate solution (5 µL) was added, and the solution mixture was kept in a water bath for 15 min at 30 °C.

BuChE = molecular target: T2, BuChE (Equus caballus, UniProt P81908); test: biochemical
T2 construct: The enzymes AChE and BuChE were obtained from electric eel and equine serum, respectively; from tissue; host or cells: equine serum
T2 sequence (P81908 whole entry): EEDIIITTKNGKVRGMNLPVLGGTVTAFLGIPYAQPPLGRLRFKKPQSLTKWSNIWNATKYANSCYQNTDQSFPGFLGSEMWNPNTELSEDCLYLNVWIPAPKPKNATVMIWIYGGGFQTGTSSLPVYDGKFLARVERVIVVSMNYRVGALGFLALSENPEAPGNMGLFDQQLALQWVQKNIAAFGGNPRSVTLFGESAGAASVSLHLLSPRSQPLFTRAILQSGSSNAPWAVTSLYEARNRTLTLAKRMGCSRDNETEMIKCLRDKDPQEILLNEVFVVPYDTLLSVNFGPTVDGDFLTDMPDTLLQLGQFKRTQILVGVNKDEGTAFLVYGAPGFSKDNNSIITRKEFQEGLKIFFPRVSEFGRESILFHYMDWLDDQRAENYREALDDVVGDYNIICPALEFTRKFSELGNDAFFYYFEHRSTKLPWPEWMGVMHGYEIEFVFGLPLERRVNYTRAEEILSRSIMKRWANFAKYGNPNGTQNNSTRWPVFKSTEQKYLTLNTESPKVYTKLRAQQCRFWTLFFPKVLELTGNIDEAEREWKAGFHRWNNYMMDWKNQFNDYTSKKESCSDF
Experimental: as §1

[1] = test system: scopolamine-induced amnesic mice; test: Elevated plus maze (EPM), scopolamine-induced amnesia; assay type: in vivo
Source text: Elevated plus maze paradigm is an important behavioral model for evaluation of anti-amnesic potentials in mice. This apparatus comprised of two open and two closed arms with dimensions of 16 cm × 5 cm × 12 cm and elevated 25 cm from the floor on a wooden stand. The EPM was designed in plus shape from two acrylic sheets having a central platform with dimensions of 5 cm × 5 cm. Initially, mice were placed in one of the open arms in such a way that it was directed away from the central platform. Then TLT was recorded after the mice moved to the closed arm, with their four legs from the open arm and then the mice were returned to their home cage. The time of exploration of the apparatus for each animal was 90 s. […] Reduction of TLT indicated memory-enhancing effect of the test samples. The inflexion ratio (IR) was calculated as: IR=L0−L1/L0 where L1 presents the initial transfer latency (s), and L0 is the retention transfer latency (s).

[2] = test system: scopolamine-induced amnesic mice; test: Novel object recognition test (NORT), scopolamine-induced amnesia; assay type: in vivo
Experimental: In this study, the memory-enhancing potentials of synthesized compounds were determined using novel object recognition test mice model. Dimensions of the apparatus were 40 cm × 40 cm × 30 cm and designed from Plexiglass in a box shape. After acclimatization, the mice were habituated with the apparatus for 2–3 min one day before the test. Initially, in the sample phase, two identical objects were placed in the two corners of the apparatus and the mice were allowed to freely explore the apparatus. The objects in the apparatus were explored by each animal either by touching the objects or keeping their noses within 2 cm of them. […] Mice were allowed again to freely explore both the objects in a similar way as in sample phase, and the time spent by each animal exploring the novel and familiar object (F) was recorded.
The following formula was used for calculation of discrimination index. D1=N—F /N+F
D1 = discrimination index; N = novel object; F = familiar object

[3] = test system: scopolamine-induced amnesic mice; test: Y-maze test, scopolamine-induced amnesia
Experimental: A total of sixteen groups of mice, with six in each group, were used in the experiment. Vehicle treated group (Normal control group) were administered 10 mL/kg (p.o) of normal saline. […] Sample treatment groups were administered 7.5 mg/kg and 15 mg/kg (p.o) of synthesized compounds, respectively.
The dimensions of the arms were 15.5 cm high, 6 cm wide, 20 cm long and connected with each other with an angle of 120°. This test was conducted for a 5 min duration for each animal. The order and number of arm entries made by each animal after placing in one arm were recorded. Complete arm entry in any given arm was considered to be when the hind paws were completely inside, and the alternation was the consecutive arm entries into three different arms by each mouse. Ethanol 70% v/v solution was used to clean the Y-maze arena to avoid olfactory cues between each test. […] Mice were freely allowed to explore the objects when they were initially placed at the center of the apparatus. The formula was used to calculate the %SAP by recording the same arm returns (SAR), alternate arm returns (AAR) and the number of arm entries.

[4] = molecular target: T3, AChE activity in the hippocampi of mice brains (Mus musculus, UniProt P21836); assay type: in vivo; details: ex vivo, vs scopolamine treated group, n = 6
T3 construct: from tissue; host or cells: mouse bilateral hippocampus homogenate, supernatant
T3 sequence (P21836 32-614): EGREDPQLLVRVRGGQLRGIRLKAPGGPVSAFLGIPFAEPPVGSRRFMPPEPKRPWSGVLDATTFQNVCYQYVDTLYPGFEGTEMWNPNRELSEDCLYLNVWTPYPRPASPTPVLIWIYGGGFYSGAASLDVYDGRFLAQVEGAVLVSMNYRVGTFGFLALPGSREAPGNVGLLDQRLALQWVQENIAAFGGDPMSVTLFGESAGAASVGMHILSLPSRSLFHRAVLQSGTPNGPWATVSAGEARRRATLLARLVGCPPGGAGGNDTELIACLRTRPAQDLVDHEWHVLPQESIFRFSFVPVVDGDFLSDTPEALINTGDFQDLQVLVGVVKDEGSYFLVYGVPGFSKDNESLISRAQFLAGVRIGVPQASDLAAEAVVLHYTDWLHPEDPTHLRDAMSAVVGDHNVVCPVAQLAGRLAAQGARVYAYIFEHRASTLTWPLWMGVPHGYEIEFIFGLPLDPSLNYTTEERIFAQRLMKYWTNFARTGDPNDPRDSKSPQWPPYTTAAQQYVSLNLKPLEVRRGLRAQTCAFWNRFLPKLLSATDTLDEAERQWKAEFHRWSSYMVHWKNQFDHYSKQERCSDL
Experimental: (§2) After the behavioral study, the mice were sacrificed by decapitation, providing a quick and painless death by cervical dislocation. The isolated brain of each animal in chilled phosphate buffer saline was subjected into biomarker assays using AChE and BuChE enzymes.
Mice were sacrificed within 24 h of the behavior study; brains were dissected and stored at −80 °C. […] Supernatant was used for the measurement of cholinesterase (AChE and BuChE) activity.
Acetylcholine/Acetyl cholinesterase assay Kit was used for the determination of AChE activity, according to the standard procedure. The assay was carried out using 96-well plate, and every reaction comprised of 100 µL sample, 200 µM Amplex Red reagent, 50 µM of acetylcholine, 1 U/mL horseradish peroxidase (HRP) and 0.1 U/mL choline oxidase in buffer solution. Incubation period for the reaction mixture was 20 min at room temperature in the dark. The fluorescence intensity at 560 nm excitation and 580 nm emission wavelength was measured.

[5] = molecular target: T4, BuChE activity in the hippocampi of mice brains (Mus musculus, UniProt Q03311); test: Ex vivo BuChE activity in the brain hippocampus; details: vs scopolamine treated group, n = 6
T4 construct: from tissue; host or cells: mouse bilateral hippocampus homogenate, supernatant
T4 sequence (Q03311 30-603): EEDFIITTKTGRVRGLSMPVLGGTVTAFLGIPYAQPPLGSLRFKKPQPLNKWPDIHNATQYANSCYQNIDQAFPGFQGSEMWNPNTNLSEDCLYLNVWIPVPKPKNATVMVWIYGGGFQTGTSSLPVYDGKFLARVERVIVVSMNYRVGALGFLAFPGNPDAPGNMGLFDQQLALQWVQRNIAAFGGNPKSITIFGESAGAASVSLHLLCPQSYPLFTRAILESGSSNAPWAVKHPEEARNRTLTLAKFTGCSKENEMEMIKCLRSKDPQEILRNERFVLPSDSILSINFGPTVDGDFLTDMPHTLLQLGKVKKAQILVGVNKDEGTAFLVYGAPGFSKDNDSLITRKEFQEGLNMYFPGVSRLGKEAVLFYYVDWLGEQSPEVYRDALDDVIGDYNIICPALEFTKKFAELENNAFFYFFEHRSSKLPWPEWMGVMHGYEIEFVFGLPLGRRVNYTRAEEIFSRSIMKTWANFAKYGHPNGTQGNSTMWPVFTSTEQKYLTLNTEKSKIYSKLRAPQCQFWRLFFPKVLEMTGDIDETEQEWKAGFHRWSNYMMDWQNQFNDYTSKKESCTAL
Experimental: as §2
Mice were sacrificed within 24 h of the behavior study; brains were dissected and stored at −80 °C. The bilateral hippocampus was homogenized before the assay into volumes of 0.01 M phosphate buffer (2.7 mM KCl, 137 mM NaCl, 2 mM KH2PO4, 10 mM Na2HPO4) and centrifuged at 4 °C for 30 min at 12,000× g. Supernatant was used for the measurement of cholinesterase (AChE and BuChE) activity.
Butyrylcholinesterase (BuChE) activity of the synthesized compounds were measured according to Ellman method with slight modification. BuSCh was hydrolyzed by BuChE and choline iodide produced, which reacted with DNTB, and then the production of TNB. The TNB was quantitated by calorimetry that indicated the BuChE activity. BuChE assay was accomplished in 96-well plate and every reaction mixture contained 40 µL sample, 80 µL DTNB (0.25 mg/mL) and 70 µL BuSCh (7.5 mM). The absorbance was determined at 37 °C after incubation for 60 min.

[6] = AChE from electric eel, Ellman's method, n = 3, read-out: AChEI (IC50 (nM))
[7] = BuChE from equine serum, Ellman's method, n = 3, read-out: BuChEI (IC50 (nM))
[8] = 7.5 mg/kg p.o. 7 days, scopolamine 1 mg/kg i.p.
[9] = 15 mg/kg p.o. 7 days, scopolamine 1 mg/kg i.p.
[10] = long-term memory (after 24 h), 7.5 mg/kg
[11] = long-term memory (after 24 h), 15 mg/kg
[12] = short-term memory, donepezil 2 mg/kg
[13] = short-term memory, test phase, donepezil 2 mg/kg

T1 sequence (O42275 24-633): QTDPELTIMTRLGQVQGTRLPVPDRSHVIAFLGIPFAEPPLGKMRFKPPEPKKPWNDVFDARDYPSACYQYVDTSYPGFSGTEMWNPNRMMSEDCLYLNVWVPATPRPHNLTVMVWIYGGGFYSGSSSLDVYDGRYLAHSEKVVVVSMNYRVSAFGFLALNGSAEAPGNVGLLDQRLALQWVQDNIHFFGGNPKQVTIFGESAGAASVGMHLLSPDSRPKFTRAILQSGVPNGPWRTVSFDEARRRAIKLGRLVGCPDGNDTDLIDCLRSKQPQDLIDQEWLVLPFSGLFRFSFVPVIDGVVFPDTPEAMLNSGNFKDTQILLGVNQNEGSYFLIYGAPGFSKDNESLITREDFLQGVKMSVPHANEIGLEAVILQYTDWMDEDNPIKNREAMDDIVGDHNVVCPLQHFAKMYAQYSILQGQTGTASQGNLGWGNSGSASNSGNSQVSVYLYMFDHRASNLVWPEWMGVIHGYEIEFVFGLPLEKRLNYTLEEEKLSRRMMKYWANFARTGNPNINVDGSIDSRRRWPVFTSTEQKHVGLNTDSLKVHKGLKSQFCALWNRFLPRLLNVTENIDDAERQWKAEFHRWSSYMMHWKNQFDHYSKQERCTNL

O=C(/C=C/c1ccccc1)CC(=O)/C=C/c1ccccc1 [Compound 1a, (1E,6E)-1,7-diphenylhepta-1,6-diene-3,5-dione]
IC50 (AChE; [6]): 2620 nM
IC50 (BuChE; [7]): 5350 nM
effect on TLT vs amnesic group [1, 8]: non-significant
effect on TLT vs amnesic group [1, 9]: non-significant
discrimination index (DI) [2, 10]: no significant change
discrimination index (DI) [2, 11]: no significant change
discrimination index (DI) ([2]; short-term memory, 7.5 mg/kg): 54.53%
discrimination index (DI) ([2]; short-term memory, 15 mg/kg): 55.10%
% spontaneous alternation performance (% SAP) [3, 8]: poor response
% spontaneous alternation performance (% SAP) [3, 9]: poor response

Cc1ccc(/C=C/C(=O)CC(=O)/C=C/c2ccc(C)cc2)cc1 [Compound 1b, (1E,6E)-1,7-di-p-tolylhepta-1,6-diene-3,5-dione]
IC50 (AChE; [6]): 734 nM
IC50 (BuChE; [7]): 2160 nM
effect on TLT vs amnesic group [1, 8]: non-significant
effect on TLT vs amnesic group [1, 9]: poor response
discrimination index (DI) [2, 10]: 52.45%
discrimination index (DI) [2, 11]: 53.61%
discrimination index (DI) ([2]; short-term memory, 7.5 mg/kg): 55.68%
discrimination index (DI) ([2]; short-term memory, 15 mg/kg): 57.47%
effect on scopolamine-increased AChE activity in hippocampus [4]: markedly reduced the increased activity of AChE
% spontaneous alternation performance (% SAP) [3, 8]: poor response
% spontaneous alternation performance (% SAP) [3, 9]: poor response

COc1ccc(/C=C/C(=O)CC(=O)/C=C/c2ccc(OC)cc2)cc1 [Compound 1c, (1E,6E)-1,7-bis(4-methoxyphenyl)hepta-1,6-diene-3,5-dione]
IC50 (AChE; [6]): 467 nM
IC50 (BuChE; [7]): 1360 nM
effect on TLT vs amnesic group [1, 8]: reduced TLT
effect on TLT vs amnesic group [1, 9]: reduced TLT
discrimination index (DI) [2, 10]: 60.58%
discrimination index (DI) [2, 11]: 62.28%
discrimination index (DI) ([2]; short-term memory, 7.5 mg/kg): 60.16%
discrimination index (DI) ([2]; short-term memory, 15 mg/kg): 61.25%
effect on scopolamine-increased AChE activity in hippocampus [4]: markedly reduced the increased activity of AChE
effect on scopolamine-increased BuChE activity in hippocampus [5]: decreased the increased BuChE activity
% spontaneous alternation performance (% SAP) [3, 8]: 47.16 ± 2.77%
% spontaneous alternation performance (% SAP) [3, 9]: 62.33 ± 184%

O=C(/C=C/c1ccc(Cl)cc1)CC(=O)/C=C/c1ccc(Cl)cc1 [Compound 1d, (1E,6E)-1,7-bis(4-chlorophenyl)hepta-1,6-diene-3,5-dione]
IC50 (AChE; [6]): 113 nM
IC50 (BuChE; [7]): 378 nM
effect on TLT vs amnesic group [1, 8]: significantly reduced TLT
effect on TLT vs amnesic group [1, 9]: significantly reduced TLT
discrimination index (DI) [2, 10]: 63.78%
discrimination index (DI) [2, 11]: 64.61%
discrimination index (DI) ([2]; short-term memory, 7.5 mg/kg): 61.43%
discrimination index (DI) ([2]; short-term memory, 15 mg/kg): 62.03%
effect on scopolamine-increased AChE activity in hippocampus [4]: markedly reduced the increased activity of AChE
effect on scopolamine-increased BuChE activity in hippocampus [5]: decreased the increased BuChE activity
% spontaneous alternation performance (% SAP) [3, 8]: 55.66 ± 2.82%
% spontaneous alternation performance (% SAP) [3, 9]: 67.66 ± 2.84%

CN(C)c1ccc(/C=C/C(=O)CC(=O)/C=C/c2ccc(N(C)C)cc2)cc1 [Compound 1e, (1E,6E)-1,7-bis(4-(dimethylamino)phenyl)hepta-1,6-diene-3,5-dione]
IC50 (AChE; [6]): 3270 nM
IC50 (BuChE; [7]): 6640 nM
effect on TLT vs amnesic group [1, 8]: non-significant
effect on TLT vs amnesic group [1, 9]: non-significant
discrimination index (DI) [2, 10]: no significant change
discrimination index (DI) [2, 11]: no significant change
discrimination index (DI) ([2]; short-term memory, 7.5 mg/kg): no promising potential
discrimination index (DI) ([2]; short-term memory, 15 mg/kg): no promising potential
% spontaneous alternation performance (% SAP) [3, 8]: non-significant
% spontaneous alternation performance (% SAP) [3, 9]: non-significant

O=C(/C=C/c1ccc([N+](=O)[O-])cc1)CC(=O)/C=C/c1ccc([N+](=O)[O-])cc1 [Compound 1f, (1E,6E)-1,7-bis(4-nitrophenyl)hepta-1,6-diene-3,5-dione]
IC50 (AChE): 5840 nM
IC50 (BuChE): 9660 nM
effect on TLT vs amnesic group [1, 8]: non-significant
effect on TLT vs amnesic group [1, 9]: non-significant
discrimination index (DI) [2, 10]: no significant change
discrimination index (DI) [2, 11]: no significant change
discrimination index (DI) ([2]; short-term memory, 7.5 mg/kg): no promising potential
discrimination index (DI) ([2]; short-term memory, 15 mg/kg): no promising potential
% spontaneous alternation performance (% SAP) [3, 8]: non-significant
% spontaneous alternation performance (% SAP) [3, 9]: non-significant

COc1cc2c(cc1OC)C(=O)C(CC1CCN(Cc3ccccc3)CC1)C2 (stereo not drawn) [Donepezil, reference compound]
transfer latency time (TLT) ([1]; donepezil 2 mg/kg p.o. 7 days, scopolamine 1 mg/kg i.p., p < 0.001 vs amnesic group): 34.57 ± 1.93 s
% DI, familiar object [2, 12]: 32.32%
% DI, novel object [2, 12]: 65.26%
time spent exploring the familiar object [2, 13]: 11.49 ± 1.39 s
time spent exploring the novel object [2, 13]: 21.59 ± 1.44 s

CN1[C@@H]2C[C@@H](OC(=O)[C@H](CO)c3ccccc3)C[C@H]1[C@@H]1O[C@@H]12 [Scopolamine]
TLT vs vehicle treated group ([1]; scopolamine 1 mg/kg i.p. alone (amnesic group)): significantly higher transfer latency time
% spontaneous alternation performance (% SAP) ([3]; scopolamine 1 mg/kg i.p. alone (amnesic group), normal controls 70.16 ± 4.58): 37.66 ± 3.94%
